The values below come from ChEMBL document CHEMBL1127920, “Synthesis and biological activity of 14-hydroxydocetaxel” (Bioorg Med Chem Lett, 1994).

Holding throughout (assay type): functional, cell-based
In one test the test system is HT-29. Description: Cytotoxicity was evaluated in vitro against HT-29 (colon carcinoma) human tumor cell lines.
The next test relates to MCF7. Description: Cytotoxicity was evaluated in vitro against MCF-7 (mammary carcinoma) human tumor cell lines.
Another test has as its system A121. Description: Cytotoxicity was evaluated in vitro against A121 (ovarian carcinoma) human tumor cell lines.
In another test the test system is A549. The test can be described thus: Cytotoxicity was evaluated in vitro against A549 (non-small cell lung carcinoma) human tumor cell lines.

As a reminder, the IC50 is the concentration that inhibits the measured activity by half. Consider `CC(=O)O[C@@]12CO[C@@H]1C[C@H](O)[C@@]1(C)C(=O)[C@H](O)C3=C(C)[C@@H](OC(=O)[C@H](O)[C@@H](NC(=O)OC(C)(C)C)c4ccccc4)[C@@H]4OC(C)(C)O[C@]4([C@@H](OC(=O)c4ccccc4)C12)C3(C)C` (some centres not stated), for which the IC50 in the test with HT-29 turned out to be 21 nM; in the test on MCF7, 34 nM; in the test with A121, 46 nM; in the test with A549, 18 nM.

As to `CC(=O)O[C@@]12CO[C@@H]1C[C@H](O)[C@@]1(C)C(=O)[C@H](O)C3=C(C)[C@@H](OC(=O)[C@H](O)[C@@H](NC(=O)OC(C)(C)C)c4ccccc4)[C@H](O)[C@@](O)([C@@H](OC(=O)c4ccccc4)C12)C3(C)C` (some centres not stated), the IC50 with HT-29 was found to be 2.1 nM; in the test on MCF7, 1.9 nM; in the test with A121, 3.3 nM; with A549, 0.8 nM.

As for `CC(=O)O[C@@]12CO[C@@H]1C[C@H](O)[C@@]1(C)C(=O)[C@H](O)C3=C(C)[C@@H](OC(=O)[C@H](O)[C@@H](NC(=O)OC(C)(C)C)c4ccccc4)C[C@@](O)([C@@H](OC(=O)c4ccccc4)[C@H]21)C3(C)C` [DOCETAXEL], the IC50 in the test with HT-29 turned out to be 1.2 nM; in the test with MCF7, 1 nM; with A121, 1.2 nM; in the test on A549, 1 nM.
